Patent US11464840B2, “Universal non-classical MHC I vaccines: HLA-E-restricted antigenic peptides as universal vaccines to treat allergy, inflammation, autoimmune and infectious diseases, and cancers” (priority 2019, dated 2022)
Where “and” joins values, the source holds several entries; their conditions need not be identical. Identical values can stand only once. Blank lines part the entries; values can stand above or below the molecule they belong to. Ends that are not written are not given here.

Legend:
Derlin-1 mRNA [1] = test: Derlin-1 mRNA knockdown by siRNA in monocyte-derived dendritic cells (qPCR, ΔΔCt); assay type: cell-based, human; conditions: for Derlin-1 mRNA knockdown (KD): MODC
Protocol: (§1) Table 1: Summary of Derlin-1 Knockdowns with Various siRNAs. Cells transfected in 12 well plate at 60%-80% confluency. one ul Viromer blue was used per 1 ml final volume. Cells were lysed via centrifugation and resuspended in TRI reagent at time points of either 6 h, 24 h, and 48 h. Lysates were split for both protein verification and qPCR. Knockdowns are estimated using the ΔΔCt method. […] Anti-Derlin-1 siRNA was designed using MITs website (sirna.wi.mit.edu) and siRNA design software (dharmacon.horizondiscovery.com/rnai/sirna). SiRNA were chosen based on the criteria that they would bind no more than 15 nucleotides on off-target mRNA and that they would be capable of knockdown for all four of the Derlin-1 mRNA isoforms. Additionally, siRNAs with 40-60% GC content, no more than 3 identical nucleotides in a row, and 3′ UU overhangs were used. The first siRNA (SEQ ID NO: 65, 5′-[…]-3′) was purchased from TriLink Biotechnologies and the second (SEQ ID NO: 66, 5′-[…]-3′) was purchased from Horizon Discovery. A third, modified siRNA with sequence 5′-SEQ ID NO: 67, O′me/G/O′me/[…]-3′ and DNA bases on the 1st and 8th nucleotide of the antisense strand was also designed and purchased from Horizontal Discovery. Scramble siRNAs were purchased from Horizontal Discovery (D-001810-10-05, ON-TARGET plus Non-targeting Pool).
(§2) Derlin-1 forms an integral part of the […] machinery required for transporting classical MHCI, e.g., HLA-A, -B, -C for proteasome degradation. […] In contrast, the protein band of Derlin-1 is entirely missing in Derlin-1 siRNA-treated MoDCs. Transfection of the primary cells were performed using PEI reagents (Viromer Blue vs. Viromer Red). The embodiment of the invention is three-fold. One aspect of the embodiment resides in treating APC with Derlin-1 RNA interference to prevent the generation of endogenous leader peptide as well as to cause dissociation of the HLA-E bound endogenous leader peptides so that Derlin-1-treated APC can be fully loaded with the HLA-E vaccines in the presence of the second costimulatory signal for immune induction.

Derlin-1 mRNA [2] = test: Derlin-1 mRNA knockdown by siRNA in T2 cells (qPCR, ΔΔCt); assay type: cell-based, human; conditions: for Derlin-1 mRNA knockdown (KD): 6 Hours
Protocol: as §1, with “Pool). […]” for “Pool).”

Derlin-1 mRNA [3] = test: Derlin-1 mRNA knockdown by siRNA in B721.221 cells (qPCR, ΔΔCt); assay type: cell-based, human; conditions: 6 hours
Protocol: as §1, with “Pool). […]” for “Pool).”

Derlin-1 = Derlin-1 knockdown protein verification by Western blot in MoDCs; assay type: cell-based, human
Description: FIG. 9. Derlin-1 siRNA knocked down Derlin-1 translation in dendritic cells and B and T cell tumors by western blots. (A) Comparison of two different PEI reagent. Viromer blue vs Viromer red with respect to Cy3-labeled siRNA (B) and toxicity (C). Derlin-1 Knockdown Protein Verification by Western Blot (A). Confirms the knockdown of protein levels in MoDCs by Derlin-1 siRNA #2. For Lanes 1, 2, 5, and 6, the respective knockdowns were 49%, 57%, 67%, and 72%. Scramble included at concentration of 25 nM in wells (3) and (7). Wells (4) and (8) contain RPMI medium only. Mouse Anti-Derlin-1 mAb added at concentration of 1:1000 and Goat Anti-mouse IgG1 added at 1:10,000. (B) Transfection Ability of Viromer red/blue vs Lipofectamine RNAiMax. TAP-deficient T2-cells transfected with cy3-conjugated siRNA at 10 nM using manufacturer's recommended protocol for each reagent. Cells were stained, fixed, and detected 24 hours after transfection. PE laser was used to detect cells on BD LSR II. A shift to the right indicates a more efficient transfection reagent. (C) Cytotoxicity of Viromer RED/BLUE vs Lipofectamine RNAiMax. Extracellular staining of T2 cells with Annexin V was used to determine the number of cells undergoing active apoptosis after transfection with each reagent. BV421 laser was used to detect cells on BD LSR II. Cells were stained, fixed, and detected 24 hours after transfection.
as §2

HLA-E = test: Surface HLA-E expression in immature MoDC cells (FACS); assay type: cell-based, human; conditions: 100 nM SR11237, 100 nM Bexarotene or Interferon-β 1,000 U, 4 days
Protocol: FIG. 5. […] MoDCs were then collected and stained with fluorescence-conjugated antibody; APC-conjugated anti-CD83 (Biolegend) and PE-conjugated HLA-E (Biolegend) followed by fixation with 2% paraformaldehyde. Phenotype and HLA-E expression of MoDCs were performed by using a FACS, LRSII flow cytometry and the data were processed by using the Flowjo software.

HLA-G [4] = test: Surface HLA-G expression in immature MoDC cells (FACS); assay type: cell-based, human; conditions: 100 nM SR11237, 100 nM Bexarotene or Interferon-β 1,000 U, 4 days
HLA-G [5] = test: Surface HLA-G expression of CD8 T cells co-cultured with peptide-pulsed MoDCs (FACS); assay type: cell-based, human; conditions: immature and mature MoDC pulsed with A2 peptides of IgE epitope, SR11237 100 nmol/L, co-culture 5 days
Protocol: FIG. 7. Modulation of HLA-G by RXR agonist. Surface HLA-G expression of CD8 T cells was observed induced by RXRα agonist, SR11237 (100 nmol/L)-treated immature (A) and mature (B) MoDCs in presence of A2 mix peptides (Biomatik). MoDCs isolated from A2 type of PBMCs, were cultured in 10% FBS RPMI with 200 U/ml IL-4 and 100 U/ml GM-CSF for 5 days as immature MoDCs and then proceeded for maturation with addition of cytokines cocktail containing TNFα (10 ng/ml), PGE2 (1 μg/ml), IL-6 (150 ng/ml) and IL-1β (5 ng/ml) (Biolegend) for another two days. Both mature and immature MoDC were incubated with SR11237 for 2 days and pulsed with A2 peptides of IgE epitope for 4 hr. Then MoDCs were co-cultured in anti-CD3 (10 μg/ml) coated plate for 5 days with T cells isolated from PBMCs by adhering PBMC to 100×20 mm plate and collecting suspended cells. Cells were then collected and stained with Alex Fluor 488-conjugated human CD8 and PE-Cy 7-conjugated human HLA G followed by fixation with 2% paraformaldehyde. Phenotype and HLA G expression of T cells were performed by using a FACS, LRSII flow cytometry, data were processed as describe above.

the three HLA-E preps [6] = test: ELISA: renatured complex captured on anti-HLA-E coated plate, bound biotinylated peptide detected with HRP-avidin; peptide at 0.1 µg/ml
the three HLA-E preps [7] = test: ELISA: renatured complex captured on anti-HLA-E coated plate, bound biotinylated peptide detected with HRP-avidin; peptide at 1.0 µg/ml

Molecule: 5′-GGACUUGGGAGGAAGAAAUUU-3′ (listed as RNA, chemistry not given here; listed as Homo sapiens) [Derlin siRNA #2]
Derlin-1 mRNA knockdown (KD) (Derlin-1 mRNA [1]; 25 nM siRNA, Day 1): 49%
Derlin-1 mRNA knockdown (KD) (Derlin-1 mRNA [1]; 25 nM siRNA, Day 2): 67%
Derlin-1 mRNA knockdown (KD) (Derlin-1 mRNA [1]; 50 nM siRNA, Day 1): 57%
Derlin-1 mRNA knockdown (KD) (Derlin-1 mRNA [1]; 50 nM siRNA, Day 2): 72%
effectiveness in reducing Derlin-1 mRNA levels, compared among siRNAs (Derlin-1 mRNA [1]; monocyte-derived dendritic cells): most effective
Derlin-1 mRNA knockdown (KD) (Derlin-1 mRNA [2]; T2, 2.5 nM siRNA): 62%
Derlin-1 mRNA knockdown (KD) (Derlin-1 mRNA [2]; T2, 5 nM siRNA): 43%
Derlin-1 mRNA knockdown (KD) (Derlin-1 mRNA [2]; T2, 10 nM siRNA): 34%
effectiveness in reducing Derlin-1 mRNA levels, compared among siRNAs (Derlin-1 mRNA [2]; T2 cells): most effective
Derlin-1 mRNA knockdown (KD) (Derlin-1 mRNA [3]; B721.221, 5 nM siRNA): 52%
Derlin-1 mRNA knockdown (KD) (Derlin-1 mRNA [3]; B721.221, 10 nM siRNA): 50%
Derlin-1 knockdown, FIG. 9 Western blot (Derlin-1; Lane 1): 49%
Derlin-1 knockdown, FIG. 9 Western blot (Derlin-1; Lane 2): 57%
Derlin-1 knockdown, FIG. 9 Western blot (Derlin-1; Lane 5): 67%
Derlin-1 knockdown, FIG. 9 Western blot (Derlin-1; Lane 6): 72%

Molecule: CC1(C)CCC(C)(C)c2cc(C3(c4ccc(C(=O)O)cc4)OCCO3)ccc21 [SR11237, reference compound]
HLA-E expression of immature MoDC cells (HLA-E): dramatically induced
HLA-G expression of immature MoDC cells (HLA-G [4]): little or no effect
HLA G expression in CD8+ T cells (HLA-G [5]): no further increase

OD (the three HLA-E preps [6]): 0.02 OD
OD (the three HLA-E preps [7]): 0.2 OD and > 0.3 OD
fold increment of OD (against the 0.02 OD at 0.1 µg/ml peptide) (the three HLA-E preps [7]): 10 fold and 15 fold
Molecule: NPRKVTAYL (also: biotinylated, position not given here) [biotinylated HLA-A2 leader peptide (SEQ ID NO: 50, …)]
